Source: US7884124B2, “Fluoro-substituted inhibitors of D-amino acid oxidase” (Sepracor Inc., priority 2006, dated 2011)

Experiments:
Chung model rats = test: Chung model (L5 spinal nerve ligation), paw withdrawal threshold with von Frey hairs; type: in vivo, rat
Description: Adult male Sprague-Dawley rats, weighing 200-230 g at the time of surgery, were used. They were housed in groups of 4 in an air-conditioned room on a 12 h light/dark cycle. Food and water were available ad libitum. The animals were allowed to acclimatize to the experimental environment for three days by leaving them on a lifted metal mesh for at least 40 min. The baseline paw withdrawal threshold (PWT) was examined using a series of graduated von Frey hairs for 3 consecutive days before surgery and re-assessed on the 7th day after surgery and on the 11th to 14th day before drug dosing. The rat Chung model was prepared as described by Kim and Chung (1992). The rat was anaesthetized with 5% isoflurane mixed with oxygen (2 L per min) followed by an i.p. injection of sodium pentobarbitone at 50 mg/kg. The back was shaved and sterilized with 75% ethanol. The animal was placed in a prone position and a para-medial incision was made on the skin covering L4-6 level. The L5 spinal nerve was carefully isolated and tightly ligated with 6/0 silk suture. The wound was then closed in layers after a complete hemostasis. A single dose of antibiotics (Amoxipen 15 mg/rat, ip) was routinely given for prevention of infection after surgery. The animals were placed in a temperature controlled recovery chamber until fully awake before being returned to the home cage. The animals were placed in individual Perspex boxes on a raised metal mesh for at least 40 min before the test. Starting with the filament of lowest force, each filament was applied perpendicularly to the centre of the ventral surface of the paw until slightly bent for 6 seconds. If the animal withdrew or lifted the paw upon stimulation, then a hair with force immediately lower than that tested was used. If no response was observed, then a hair with force immediately higher was tested. The lowest amount of force required to induce reliable responses (positive in 3 out of 5 trials) was recorded as the value of PWT. Only those animals with significant allodynia (PWT≦3.5 g) were selected for drug dosing experiments. The rats in a neuropathic pain state were randomly divided into experimental groups: Vehicle group and 1 group had 8 rats and the gabapentin group had 9 rats. The drug test was carried out 12 to 14 days after surgery. Isotonic 50 mM phosphate buffer (PB), dosed orally at 3 mL/kg, served as the vehicle control. Gabapentin was dissolved in normal saline and given orally at 100 mg/kg. […] The PWT was assessed at 1, 3, 6 and 24 h following drug or vehicle administration. The animals were returned to their home cage for a break (about 30 min) between two neighboring testing time points. One-way analysis of variance (ANOVA) (SPSS software) was used for statistical analysis to compare different groups on the same time points. Paired Student-t test was used to compare different time points in the same group. The significance level was set at P<0.05.

C57BL/6 male mice = test: Contextual fear conditioning (freezing 24 hours after training); type: in vivo
Source text: Young-adult C57BL/6 male mice were used. Mice were received at 6-7 weeks of age. Upon arrival, mice were assigned unique identification numbers (tail marked) and were group housed in polycarbonate cages with filter tops. All mice were acclimated to the colony room for at least four weeks prior to testing and were subsequently tested at an average age of 10-12 weeks of age. During the period of acclimation, mice were examined on a regular basis, handled, and weighed to assure adequate health and suitability. Mice were maintained on a 12/12 light/dark cycle with the light on at 6:00 a.m. The experiments were always conducted during the light phase of the cycle. The day before the initiation of the experiment, mice were housed single in individual cages and maintained so till the end of the experiment. Animals were randomly assigned across treatment groups. With the exception of testing times, the mice had ad lib access to food and water. Rolipram (0.1 mg/kg) was dissolved in 1% DMSO i.p. 20 min prior to training at a dose volume of 8 ml/kg. To assess contextual conditioning, we use a standardized contextual fear conditioning task originally developed for evaluation of memory in CREB mutant mice (Bourtchouladze, R. et al.; Cell 1994, 79, 59-68). Specifically, on the training day, the mouse is placed into the conditioning chamber for 2 minutes before the onset of the unconditioned stimulus (US), a 0.75 mA foot shock of 2 seconds duration. The US is repeated two times with a 1 min inter-trial interval between shocks. Training is performed using an automated software package. After the last training trial, a mouse is left in the conditioning chamber for another 30 sec and then placed back in its home cage. Contextual memory is tested 24 hours after training. The mouse is placed into the same training chamber and conditioning is assessed by scoring freezing behavior. Freezing is defined as the complete lack of movement in intervals of 5 seconds (Kim et al., 1993; Phillips & LeDoux, 1992; Bourtchouladze et al., 1994; 1998; Abel et al., 1997; Kogan et al., 1997). […]

For `NCC1(CC(=O)O)CCCCC1` [Gabapentin, reference compound], the “PWT, ipsilateral side” value (Chung model rats; gabapentin 100 mg/kg orally, 1 hour after dosing, before dosing 1.48±0.22 g) was 3.77 ± 0.42 g, the “PWT, contralateral side” value (Chung model rats; gabapentin 100 mg/kg orally, 1 hour after dosing, before dosing 9.67±0.68 g) was 10.11 ± 0.93 g and the “PWT, ipsilateral side” value (Chung model rats; gabapentin 100 mg/kg orally, 3 hours after dosing, before dosing 1.48±0.22 g) was 6.27 ± 0.76 g. For the same compound, the “PWT, contralateral side” value (Chung model rats; gabapentin 100 mg/kg orally, 3 hours after dosing, before dosing 9.67±0.68 g) was 10.11 ± 0.93 g, the “PWT, ipsilateral side” value (Chung model rats; gabapentin 100 mg/kg orally, 6 hours after dosing, before dosing 1.48±0.22 g) was 2.38 ± 0.29 g and the “PWT, contralateral side” value (Chung model rats; gabapentin 100 mg/kg orally, 6 hours after dosing, before dosing 9.67±0.68 g) was 8.29 ± 0.42 g. The “PWT, ipsilateral side” value (Chung model rats; gabapentin 100 mg/kg orally, 24 hours after dosing, before dosing 1.48±0.22 g) was 2.69 ± 0.60 g, the “PWT, contralateral side” value (Chung model rats; gabapentin 100 mg/kg orally, 24 hours after dosing, before dosing 9.67±0.68 g) was 9.40 ± 0.71 g and the “Time after dosing at which the effect on PWT reached a peak” value (“Time after dosing at which the effect” for short) (Chung model rats; gabapentin orally dosed at 100 mg/kg) was 3 h. For the same compound, the “Effect on PWT” value (Chung model rats; gabapentin orally dosed at 100 mg/kg, positive control) was “significantly increased the PWT”.

With `O=C(O)c1cc2occc2[nH]1` [Compound 11, 4H-furo[3,2-b]pyrrole-5-carboxylic acid] the “Effect on PWT” value (Chung model rats; oral dose of 10 mg/kg) was “significantly elevated the PWT”, the “Time after dosing at which the effect” value (Chung model rats; oral dose of 10 mg/kg) was 6 h and the “Time after dosing at which the increase in PWT was first observed” value (Chung model rats; oral dose of 10 mg/kg) was 1 h. For the same compound, the “Freezing 24 hours after training” value (C57BL/6 male mice; 10 mg/kg p.o. 2 hrs prior to training, vehicle 33.3%+/−5.1%, n=10) was 69.7%+/−3.0%.

For `COc1ccc(C2CNC(=O)C2)cc1OC1CCCC1` (stereo not shown) [Rolipram, reference compound], the “Freezing 24 hours after training” value (C57BL/6 male mice; Rolipram 0.1 mg/kg i.p. 20 min prior to training, vehicle 27.2%+/−3.6%) was 44.4%+/−4.4%.

For `O=C(O)c1cc2sccc2[nH]1` [Compound 1, 4H-thieno[3,2-b]pyrrole-5-carboxylic acid], the “PWT, ipsilateral side” value (Chung model rats; 30 mg/kg orally, 1 hour after dosing, before dosing 1.25±0.18 g) was 2.50 ± 0.33 g, the “PWT, contralateral side” value (Chung model rats; 30 mg/kg orally, 1 hour after dosing, pre-drug level 8.80±0.13 g) was 8.15 ± 0.45 g and the “PWT, ipsilateral side” value (Chung model rats; 30 mg/kg orally, 3 hours after dosing, before dosing 1.25±0.18 g) was 4.44 ± 0.27 g. The “PWT, contralateral side” value (Chung model rats; 30 mg/kg orally, 3 hours after dosing, pre-drug level 8.80±0.13 g) was 8.90 ± 0.15 g, the “PWT, ipsilateral side” value (Chung model rats; 30 mg/kg orally, 6 hours after dosing, before dosing 1.25±0.18 g) was 5.71 ± 0.66 g and the “PWT, contralateral side” value (Chung model rats; 30 mg/kg orally, 6 hours after dosing, pre-drug level 8.80±0.13 g) was 9.70 ± 0.77 g. For the same compound, the “PWT, ipsilateral side” value (Chung model rats; 30 mg/kg orally, 24 hours after dosing, before dosing 1.25±0.18 g) was 1.90 ± 0.38 g, the “PWT, contralateral side” value (Chung model rats; 30 mg/kg orally, 24 hours after dosing, pre-drug level 8.80±0.13 g) was 8.35 ± 0.50 g and the “Time after dosing at which the effect” value (Chung model rats; 30 mg/kg orally, ipsilateral side) was 6 h. For the same compound, the “Activity in contextual fear conditioning” value (C57BL/6 male mice; 10 mg/kg P.O.) was “active”.
